Measurements published in patent publication US20230045421A1 (priority 2018, published 2023).

System: HBV rcDNA
Experiment: HepDE19 assay with bDNA quantitation of HBV rcDNA
Format: cell-based, hepatitis B virus
Conditions: HepDE19 assay, inhibition of formation of rcDNA; read-out: DE-19bDNA EC50
Outline: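 HepDE19 cells (HepG2-derived, Tet-regulated HBV replication) were deprived of tetracycline and then exposed to compounds for 7 days at 37 °C in 0.5% DMSO, 8-point titration from 25 μM. rcDNA was quantified by bDNA and EC50/EC90 came from 4-parameter fits. CC50 was measured by CellTiter-Glo ATP content on replicate plates after 4 days.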

Compared with `CC(c1c[nH]c(=O)c2ccc(Cl)cc12)N(C)C(=O)Nc1ccc(F)c(Cl)c1` (single isomer, unassigned) [Compound 171, 1-(1-(6-Chloro-1-oxo-1,2-dihydroisoquinolin-4-yl)ethyl)-3-(3-chloro-4-fluorophenyl)-1-methylurea], `COc1ccc2c(C(C)N(C)C(=O)Nc3ccc(F)c(Cl)c3)c[nH]c(=O)c2c1` (single isomer, unassigned) [Compound 178, 3-(3-Chloro-4-fluorophenyl)-1-(1-(7-methoxy-1-oxo-1,2-dihydroisoquinolin-4-yl)ethyl)-1-methylurea] is 32-fold lower in EC50: 5.4 µM for the first, 0.17 µM for the second.

Compared with `CCN(C(=O)Nc1ccc(F)c(Cl)c1)C(C)c1c[nH]c(=O)c2cnccc12` (single isomer, unassigned) [Compound 151, 3-(3-Chloro-4-fluorophenyl)-1-ethyl-1-(1-(1-oxo-1,2-dihydro-2,7-naphthyridin-4-yl)ethyl)urea], `CC(c1c[nH]c(=O)c2ccccc12)N(C[C@@H](C)O)C(=O)Nc1ccc(F)c(Cl)c1` (single isomer, unassigned) [Compound 215] is 12-fold higher in EC50: 2 µM for the first, 23 µM for the second.

First: CC(c1cn(Cc2nc[nH]n2)c(=O)c2ccccc12)N(C)C(=O)Nc1ccc(F)c(Cl)c1 (single isomer, unassigned) [Compound 270, 1-(1-(2-((1H-1,2,4-Triazol-3-yl)methyl)-1-oxo-1,2-dihydroisoquinolin-4-yl)ethyl)-3-(3-chloro-4-fluorophenyl)-1-methylurea]
Second: CNc1ncc(C(C)N(C)C(=O)Nc2ccc(F)c(Cl)c2)c2ccccc12 (single isomer, unassigned) [Compound 231, 3-(3-Chloro-4-fluorophenyl)-1-methyl-1-(1-(1-(methylamino)isoquinolin-4-yl)ethyl)urea]
The EC50 of the first is 1.8-fold higher: 22 µM for the first, 12 µM for the second. The second is the more potent here.

In the case of `COCCCN(C(=O)Nc1ccc(F)c(Cl)c1)C(C)c1cnc(OC)c2ccccc12` (single isomer, unassigned) [Compound 81, 3-(3-Chloro-4-fluorophenyl)-1-(1-(1-methoxyisoquinolin-4-yl)ethyl)-1-(3-methoxypropyl)urea], the EC50 is reported as 8.6 µM.

Same assay, conditions: HepDE19 assay, inhibition of formation of relaxed circular DNA (rcDNA), bDNA quantitation; read-out: DE-19bDNA EC50

Compared with `CC(C)CN(C(=O)Nc1ccc(F)c(Cl)c1)C(C)c1cnc(-n2cncn2)c2ccccc12` (single isomer, unassigned) [Compound 345, 1-(1-(1-(1H-1,2,4-triazol-1-yl)isoquinolin-4-yl)ethyl)-3-(3-chloro-4-fluorophenyl)-1-isobutylurea], `CC(c1cnc(CO)c2ccccc12)N(C)C(=O)Nc1ccc(F)c(Cl)c1` (single isomer, unassigned) [Compound 326, 3-(3-Chloro-4-fluorophenyl)-1-(1-(1-(hydroxymethyl)isoquinolin-4-yl)ethyl)-1-methylurea] is 1700-fold higher in EC50: 0.0095 µM for the first, 16 µM for the second. The first is the more potent here.

Compared with `CC(c1c[nH]c(=O)c2c(F)c(F)ccc12)N(CCS(N)(=O)=O)C(=O)Nc1ccc(F)c(Cl)c1` (single isomer, unassigned) [Compound 392, 2-(3-(3-Chloro-4-fluorophenyl)-1-(1-(7,8-difluoro-1-oxo-1,2-dihydroisoquinolin-4-yl)ethyl)ureido) ethane-1-sulfonamide], `CC(c1c[nH]c(=O)c2c(F)cccc12)N(CCCO)C(=O)Nc1ccc(F)c(Cl)c1` (single isomer, unassigned) [Compound 367, 3-(3-Chloro-4-fluorophenyl)-1-(1-(8-fluoro-1-oxo-1,2-dihydroisoquinolin-4-yl)ethyl)-1-(3-hydroxypropyl)urea] is 3.2-fold lower in EC50: 0.026 µM for the first, 0.008 µM for the second. The second is the more potent here.

First: CC(c1c[nH]c(=O)c2cc(F)c(F)cc12)N(CCCO)C(=O)Nc1ccc(F)c(Cl)c1 (single isomer, unassigned) [Compound 290, 3-(3-Chloro-4-fluorophenyl)-1-(1-(6,7-difluoro-1-oxo-1,2-dihydroisoquinolin-4-yl)ethyl)-1-(3-hydroxypropyl)urea]
Second: CC(c1cnc(OCc2nc[nH]n2)c2cc(F)c(F)cc12)N(C)C(=O)Nc1ccc(F)c(Cl)c1 (single isomer, unassigned) [Compound 363, 1-(1-(1-((1H-1,2,4-Triazol-3-yl)methoxy)-6,7-difluoroisoquinolin-4-yl)ethyl)-3-(3-chloro-4-fluorophenyl)-1-methylurea]
The EC50 of the first is 7-fold lower: 0.002 µM for the first, 0.014 µM for the second. The first is the more potent here.

`CC(c1c[nH]c(=O)c2c(F)c(F)ccc12)N(C)C(=O)Nc1ccc(F)c(C#N)c1` (single isomer, unassigned) [Compound 470, 3-(3-Cyano-4-fluorophenyl)-1-(1-(7,8-difluoro-1-oxo-1,2-dihydroisoquinolin-4-yl)ethyl)-1-methylurea] was tested, and the EC50 was 2 µM.

Same assay, conditions: Hepatitis B virus, HepDE19, HepDE19 assay, inhibition of formation of rcDNA; read-out: DE-19bDNA EC50

First: CC(c1cnc(NCCN)c2ccccc12)N(C)C(=O)Nc1ccc(F)c(Cl)c1 (racemic) [Compound 244, 1-(1-(1-((2-aminoethyl)amino)isoquinolin-4-yl)ethyl)-3-(3-chloro-4-fluorophenyl)-1-methylurea]
Second: COc1ncc(CN(C)C(=O)Nc2ccc(F)c(C)c2)c2ccccc12 [Compound 3, 3-(4-Fluoro-3-methylphenyl)-1-((1-methoxyisoquinolin-4-yl)methyl)-1-methylurea]
The EC50 of the first is 2.5-fold higher: 2.7 µM for the first, 1.1 µM for the second. The second is the more potent here.

`Cc1cc(NC(=O)N(CC(F)F)[C@H](C)c2c[nH]c(=O)c3ccccc23)ccc1F` [Compound 97, (R)-3-(3-Methyl-4-fluorophenyl)-1-(2,2-difluoroethyl)-1-(1-(1-oxo-1,2-dihydroisoquinolin-4-yl)ethyl)urea] showed an EC50 of 0.11 µM.

Same assay, conditions: Hepatitis B virus, HepDE19, HepDE19 assay, inhibition of formation of relaxed circular DNA (rcDNA), bDNA quantitation; read-out: DE-19bDNA EC50

`CC(c1cnc(-n2ccnn2)c2ccccc12)N(C)C(=O)Nc1ccc(F)c(Cl)c1` (racemic) [Compound 354, 1-(1-(1-(1H-1,2,3-triazol-1-yl)isoquinolin-4-yl)ethyl)-3-(3-chloro-4-fluorophenyl)-1-methylurea] gave an EC50 of 0.13 µM.

Same assay, conditions: Hepatitis B virus, HepDE19, read-out: DE-19bDNA EC50 (μM), HepDE19 assay, inhibition of formation of rcDNA

Compound `COCCN(Cc1c[nH]c(=O)c2ccccc12)C(=O)Nc1ccc(F)c(Cl)c1` [Compound 50, 3-(3-Chloro-4-fluorophenyl)-1-(2-methoxyethyl)-1-((1-oxo-1,2-dihydroisoquinolin-4-yl)methyl)urea] has an EC50 of 0.47 µM.

Same assay, conditions: Hepatitis B virus, HepDE19, read-out: DE-19bDNA EC50 (μM), HepDE19 assay, inhibition of formation of relaxed circular DNA (rcDNA), bDNA quantitation

Going from `CC(c1c[nH]c(=O)c2c(F)c(F)ccc12)N(C)C(=O)N[C@H](C)c1ccccc1` (single isomer, unassigned) [Compound 488] to `CC(NC(=O)Nc1ccc(F)c(Cl)c1)c1c[nH]c(=O)c2cc(F)c(F)cc12` (stereo not shown) [Compound 480, 1-(3-Chloro-4-fluorophenyl)-3-(1-(6,7-difluoro-1-oxo-1,2-dihydroisoquinolin-4-yl)ethyl)urea], the EC50 falls from 9 µM to 0.85 µM (11-fold). The second is the more potent here.

Same assay, conditions: read-out: DE-19bDNA EC50; HepDE19 assay, inhibition of formation of rcDNA

First: CCC(c1c[nH]c(=O)c2ccccc12)N(CC)C(=O)Nc1ccc(F)c(Cl)c1 (single isomer, unassigned) [Compound 37, 3-(3-chloro-4-fluorophenyl)-1-ethyl-1-(1-(1-oxo-1,2-dihydroisoquinolin-4-yl)propyl)urea]
Second: CCN(C(=O)Nc1ccc(F)c(Cl)c1)C(c1c[nH]c(=O)c2ccccc12)C1CC1 (single isomer, unassigned) [Compound 49, 3-(3-Chloro-4-fluorophenyl)-1-(cyclopropyl(1-oxo-1,2-dihydroisoquinolin-4-yl)methyl)-1-ethylurea]
The EC50 of the first is 1.9-fold lower: 0.26 µM for the first, 0.5 µM for the second. The first is the more potent here.

`CC(c1c[nH]c(=O)c2ccccc12)N(CC[C@H](C)O)C(=O)Nc1ccc(F)c(Cl)c1` (single isomer, unassigned) [Compound 213] showed an EC50 of 3.6 µM.

Same assay, conditions: read-out: DE-19bDNA EC50; HepDE19 assay, inhibition of formation of relaxed circular DNA (rcDNA), bDNA quantitation

`CC(c1c[nH]c(=O)c2cc(F)c(F)cc12)N(C)C(=O)Nc1ccccc1` (single isomer, unassigned) [Compound 398, 1-(1-(6,7-Difluoro-1-oxo-1,2-dihydroisoquinolin-4-yl)ethyl)-1-methyl-3-phenylurea] gave an EC50 of 16 µM.
